Here are results for 26 molecules from patent publication US20070167452A1, “Therapeutic amide derivatives” (PFIZER, INC., priority 2004, published 2007).

SMILES strings stand for the structures.

The IC50 is the midpoint of a concentration-inhibition curve. Lower therefore signals greater potency in that assay.

One test addresses T1, NR2B receptor (Rattus norvegicus, UniProt P35439+Q00960).
T1 construct: Membranes were prepared by homogenization of forebrain of male CD rats; from tissue; host or cells: forebrain of male CD rats (P2 membrane)
Nature of the test: NR2B Binding Assay. As to conditions: forebrain P2 membranes of male CD rats; 5 nM [3H] NR2B ligand. As for the experimental part:
The activity of the cycloalkylene amide compounds of the present invention, as NR2B antagonists, is determined by their ability to inhibit the binding of NR2B subunit at its receptor sites employing radioactive ligands.
The NR^2B antagonist activity of the cycloalkylene amide compounds is evaluated by using the standard assay procedure described in, for example, J. Pharmacol., 331, pp 117-126, 1997. This method essentially involves determining the concentration of the individual compound required to reduce the amount of radiolabelled NR2B ligands by 50% at their receptor sites, thereby affording characteristic IC50 values for each compound tested. More specifically, the assay is carried out as follows.
Membranes were prepared by homogenization of forebrain of male CD rats weighing between 170˜190 g by using glass-Teflon homogenizer in 0.32 M sucrose at 4° C. The crude nuclear pellet was removed by centrifugation at 1000×g for 10 min, and the supernatant centrifuged at 17000×g for 25 min. The resulting pellet was resuspended in 5 mM Tris acetate pH 7.4 at 4° C. for 10 min to lyse cellular particles and again centrifuged at 17000×g. The resulting pellet (P2 membrane) was washed twice in Tris acetate, resuspended at 5.5 mg protein/ml and stored at −20° C. until use. All the manipulation was done on ice, and stock solution and equipment were kept on ice at all time.
For the saturation assay, receptor saturation was determined by incubating [^3H]-1-[(1S*,2S*)-2-hydroxy-2-(4-hydroxyphenyl)-1-methylethyl]-4-phenylpiperidin-4-ol and 50 μg protein of P2 membrane for 60 minutes at room temperature in a final 100 μl of incubation buffer (50 mM Tris HCl, pH7.4). Total and non-specific bindings (in the presence of 10 μM of unlabeled 1-[(1S*,2S*)-2-hydroxy-2-(4-hydroxyphenyl)-1-methylethyl]-4-phenylpiperidin-4-ol) were determined in a range of [^3H]-1-[(1S*,2S*)-2-hydroxy-2-(4-hydroxyphenyl)-1-methylethyl]-4-phenylpiperidin-4-ol concentrations (0.625 nM to 60 nM).
For the competition assay, test compounds were incubated in duplicate with 5 nM [^3H]-1-[(1S*,2S*)-2-hydroxy-2-(4-hydroxyphenyl)-1-methylethyl]-4-phenylpiperidin-4-ol and 50 μg protein of P2 membrane for 60 minutes at room temperature in a final 100 μl of 50 mM Tris HCl buffer (pH7.4). Nonspecific binding was determined by 10 μM of unlabeled 1-[(1S*,2S*)-2-hydroxy-2-(4-hydroxyphenyl)-1-methylethyl]-4-phenylpiperidin-4-ol (25 μl). The saturation derived KD gained in saturation assay was used for all Ki calculations.
All incubations were terminated by rapid vacuum filtration over 0.2% polyethyleneimine soaked Whatman GF/B glass fibre filter paper using a SKATRON cell harvester followed by three washes with ice-cold filtration buffer (5 mM Tris HCl, pH 7.4.). Receptor-bound radioactivity was quantified by liquid scintillation counting using Packard LS counter. Competition assays were performed by counting Wallac GF/B filters on Betaplate scintillation counter (Wallac).

The next test has as its target Human HERG (Homo sapiens, UniProt Q12809). Nature of the test: Human Dofetilide Binding Assay.

T1 sequence (Q00960 27-1482, other chains not shown): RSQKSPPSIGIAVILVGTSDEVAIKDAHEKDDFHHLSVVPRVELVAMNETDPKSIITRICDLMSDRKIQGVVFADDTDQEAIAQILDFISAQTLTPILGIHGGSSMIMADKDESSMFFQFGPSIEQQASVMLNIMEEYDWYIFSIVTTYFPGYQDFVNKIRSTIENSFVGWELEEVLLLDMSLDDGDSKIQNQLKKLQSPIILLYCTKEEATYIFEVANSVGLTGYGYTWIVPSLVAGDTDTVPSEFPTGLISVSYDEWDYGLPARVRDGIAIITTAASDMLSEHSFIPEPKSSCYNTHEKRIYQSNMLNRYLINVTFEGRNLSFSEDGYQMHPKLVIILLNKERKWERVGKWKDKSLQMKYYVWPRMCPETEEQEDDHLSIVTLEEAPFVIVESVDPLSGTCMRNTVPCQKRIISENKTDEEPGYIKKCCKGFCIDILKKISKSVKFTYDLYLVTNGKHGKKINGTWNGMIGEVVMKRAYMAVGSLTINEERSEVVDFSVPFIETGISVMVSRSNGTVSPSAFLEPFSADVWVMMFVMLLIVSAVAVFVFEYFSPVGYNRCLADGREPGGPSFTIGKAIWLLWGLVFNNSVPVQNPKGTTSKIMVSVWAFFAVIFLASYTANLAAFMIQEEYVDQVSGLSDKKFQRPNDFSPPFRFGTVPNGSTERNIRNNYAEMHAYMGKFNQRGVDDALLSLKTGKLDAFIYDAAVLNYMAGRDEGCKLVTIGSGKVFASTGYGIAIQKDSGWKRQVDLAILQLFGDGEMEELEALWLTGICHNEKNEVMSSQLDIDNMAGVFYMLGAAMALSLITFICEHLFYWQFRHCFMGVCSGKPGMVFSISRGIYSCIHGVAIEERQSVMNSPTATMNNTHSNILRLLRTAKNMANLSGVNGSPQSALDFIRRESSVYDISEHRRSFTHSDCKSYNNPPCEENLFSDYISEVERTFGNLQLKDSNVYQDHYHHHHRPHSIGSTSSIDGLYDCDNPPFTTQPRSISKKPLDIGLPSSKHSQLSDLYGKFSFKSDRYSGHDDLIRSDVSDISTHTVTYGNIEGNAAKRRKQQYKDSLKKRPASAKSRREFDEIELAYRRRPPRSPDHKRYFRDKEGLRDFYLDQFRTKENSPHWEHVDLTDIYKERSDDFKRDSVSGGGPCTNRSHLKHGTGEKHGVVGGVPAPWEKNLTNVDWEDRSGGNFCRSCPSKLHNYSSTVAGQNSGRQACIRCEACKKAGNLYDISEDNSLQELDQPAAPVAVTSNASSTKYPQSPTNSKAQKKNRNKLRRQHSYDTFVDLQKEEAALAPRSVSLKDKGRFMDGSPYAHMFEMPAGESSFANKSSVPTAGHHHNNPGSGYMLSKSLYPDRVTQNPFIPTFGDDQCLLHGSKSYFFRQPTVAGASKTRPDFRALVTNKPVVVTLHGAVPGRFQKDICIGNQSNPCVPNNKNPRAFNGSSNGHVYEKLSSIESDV
Chain of Human HERG (Q12809 whole entry): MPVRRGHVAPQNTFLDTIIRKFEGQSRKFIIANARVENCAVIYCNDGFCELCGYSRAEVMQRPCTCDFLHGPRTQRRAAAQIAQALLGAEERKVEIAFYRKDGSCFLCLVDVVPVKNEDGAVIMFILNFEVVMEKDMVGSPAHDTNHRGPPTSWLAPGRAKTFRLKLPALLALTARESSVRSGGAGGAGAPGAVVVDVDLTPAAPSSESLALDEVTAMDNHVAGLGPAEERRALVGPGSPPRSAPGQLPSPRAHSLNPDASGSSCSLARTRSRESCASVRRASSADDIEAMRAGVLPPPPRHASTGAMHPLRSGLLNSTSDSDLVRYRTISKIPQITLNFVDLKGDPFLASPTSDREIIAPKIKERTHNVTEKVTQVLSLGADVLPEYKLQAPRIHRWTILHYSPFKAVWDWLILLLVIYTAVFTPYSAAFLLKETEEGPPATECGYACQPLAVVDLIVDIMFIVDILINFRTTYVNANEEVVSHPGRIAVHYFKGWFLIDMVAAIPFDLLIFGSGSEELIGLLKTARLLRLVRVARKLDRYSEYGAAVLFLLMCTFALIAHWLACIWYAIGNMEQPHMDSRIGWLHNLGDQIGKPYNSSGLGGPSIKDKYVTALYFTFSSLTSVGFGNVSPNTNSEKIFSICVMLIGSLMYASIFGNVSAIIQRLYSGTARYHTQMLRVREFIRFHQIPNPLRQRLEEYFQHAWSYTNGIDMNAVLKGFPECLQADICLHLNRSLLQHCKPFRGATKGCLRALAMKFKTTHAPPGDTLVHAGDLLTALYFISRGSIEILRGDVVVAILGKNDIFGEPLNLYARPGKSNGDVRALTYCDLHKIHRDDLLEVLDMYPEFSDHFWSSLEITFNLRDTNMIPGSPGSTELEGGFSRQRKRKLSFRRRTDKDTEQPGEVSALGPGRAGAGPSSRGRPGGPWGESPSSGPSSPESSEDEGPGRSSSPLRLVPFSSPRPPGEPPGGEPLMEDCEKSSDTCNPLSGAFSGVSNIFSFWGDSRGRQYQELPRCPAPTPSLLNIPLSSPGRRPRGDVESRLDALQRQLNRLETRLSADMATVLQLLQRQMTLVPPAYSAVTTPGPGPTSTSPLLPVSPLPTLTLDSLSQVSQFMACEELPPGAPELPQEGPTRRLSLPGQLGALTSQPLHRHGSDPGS
Protocol for Human HERG: Human HERG transfected HEK293S cells were prepared and grown in-house. The collected cells were suspended in 50 mM Tris-HCl (pH 7.4 at 4° C.) and homogenized using a hand held Polytron PT 1200 disruptor set at full power for 20 sec on ice. The homogenates were centrifuged at 48,000×g at 4° C. for 20 min. The pellets were then resuspended, homogenized, and centrifuged once more in the same manner. The final pellets were resuspended in an appropriate volume of 50 mM Tris-HCl, 10 mM KCl, 1 mM MgCl2 (pH 7.4 at 4° C.), homogenized, aliquoted and stored at −80° C. until use. An aliquot of membrane fractions was used for protein concentration determination using BCA protein assay kit (PIERCE) and ARVOsx plate reader (Wallac).
Binding assays were conducted in a total volume of 200 μl in 96-well plates. Twenty μl of test compounds were incubated with 20 μl of [^3H]-dofetilide (Amersham, final 5 nM) and 160 μl of membrane homogenate (25 μg protein) for 60 minutes at room temperature. Nonspecific binding was determined by 10 μM dofetilide at the final concentration. Incubation was terminated by rapid vacuum filtration over 0.5% presoaked GF/B Betaplate filter using Skatron cell harvester with 50 mM Tris-HCl, 10 mM KCl, 1 mM MgCl2, pH 7.4 at 4° C. The filters were dried, put into sample bags and filled with Betaplate Scint. Radioactivity bound to filter was counted with Wallac Betaplate counter.

In the case of `O=C(NC[C@H]1CC[C@@H](COc2ccc(Cl)cc2)CO1)c1cn[nH]c1` [Example 120, N-({(2R,5R)-5-[(4-Chlorophenoxy)methyl]tetrahydro-2H-pyran-2-yl}methyl)-1H-pyrazole-4-carboxamide], the figures for the IC50 at NR2B receptor and on Human HERG were 12.2 nM and over 30 µM, respectively.
Take `O=C(NC[C@H]1CC[C@@H](COc2ccccc2)OC1)c1ccc(O)cc1` [Example 43, (−)-4-Hydroxy-N-{[(3R,6S)-6-(phenoxymethyl)tetrahydro-2H-pyran-3-yl]methyl}benzamide]: the IC50 is 7.6 nM on NR2B receptor and over 100 µM on Human HERG.
Turning to `O=C(NC[C@H]1CC[C@@H](COc2ccccn2)CC1)c1cn[nH]c1` [Example 105, N-({cis-4-[(Pyridin-2-yloxy)methyl]cyclohexyl}methyl)-1H-pyrazole-4-carboxamide], the figures for the IC50 at NR2B receptor and on Human HERG were 27.2 nM and over 100 µM, respectively.
`O=C(NC[C@H]1CC[C@@H](COc2ccc(F)cc2)OC1)c1ccc(O)cc1` [Example 74, N-({(3R,6S)-6-[(4-Fluorophenoxy)methyl]tetrahydro-2H-pyran-3-yl}methyl)-4-hydroxybenzamide]: the IC50 on NR2B receptor came to 7.2 nM; at Human HERG it was 54.7 µM.
For the molecule `O=C(NC[C@H]1CC[C@@H](COc2ccc(F)cc2)CO1)c1ccc(O)cc1` [Example 75, N-({(2R,5R)-5-[(4-Fluorophenoxy)methyl]tetrahydro-2H-pyran-2-yl}methyl)-4-hydroxybenzamide], the IC50 on NR2B receptor is 6.2 nM; on Human HERG it was 26.8 µM.
In the same order, the values of `O=C(NC[C@H]1CC[C@@H](CCOc2ccccc2)CC1)c1cc(F)c(O)c(F)c1` [Example 91, 3,5-Difluoro-4-hydroxy-N-{[cis-4-(2-phenoxyethyl)cyclohexyl]methyl}benzamide] are 13 nM and over 30 µM.
In the case of `O=C(NC[C@H]1CC[C@@H](COc2ccc(Cl)c(F)c2)CO1)c1cn[nH]c1` [Example 129, N-({(2R,5R)-5-[(4-Chloro-3-fluorophenoxy)methyl]tetrahydro-2H-pyran-2-yl}methyl)-1H-pyrazole-4-carboxamide], the 50% inhibitory concentration (IC50) was 10.3 nM at NR2B receptor and over 30 µM at Human HERG.
In the same order, the values of `O=C(NC[C@]1(O)CC[C@H](Oc2ccc(Cl)cc2)CC1)c1ccc(O)c(F)c1` [Example 33, N-{[trans-4-(4-Chlorophenoxy)-1-hydroxycyclohexyl]methyl}-3-fluoro-4-hydroxybenzamide] are 19.3 nM and 95.6 µM.
`O=C(NC[C@@H]1CC[C@H](COCc2ccccc2)CO1)c1ccc(O)cc1` [Example 40, 4-Hydroxy-N-{[5R-(benzyloxymethyl)tetrahydro-2H-pyran-2R-yl]methyl}benzamide]: the 50% inhibitory concentration (IC50) at NR2B receptor is 10.4 nM; on Human HERG, over 100 µM.
On to `O=C(NC[C@H]1CC[C@@H](OCCOc2ccc(F)cc2)CC1)c1cn[nH]c1` [Example 90, N-({cis-4-[2-(4-Fluorophenoxy)ethoxy]cyclohexyl}methyl)-1H-pyrazole-4-carboxamide], for which the IC50 is 5.2 nM on NR2B receptor and over 100 µM on Human HERG.
For the molecule `O=C(NC[C@]1(O)CC[C@H](Cc2ccc(F)cc2)CC1)c1ccc(O)c(F)c1` [Example 80, 3-Fluoro-N-{[trans-4-(4-fluorobenzyl)-1-hydroxycyclohexyl]methyl}-4-hydroxybenzamide], the IC50 is 8.9 nM at NR2B receptor and over 100 µM on Human HERG.
With `O=C(NC[C@H]1CC[C@@H](COc2cccc(F)c2)CC1)c1cn[nH]c1` [Example 106, N-({cis-4-[(3-Fluorophenoxy)methyl]cyclohexyl}methyl)-1H-pyrazole-4-carboxamide], the IC50 was 16 nM on NR2B receptor and 29.1 µM at Human HERG.
Taken in the same sequence, the figures for `O=C(NC[C@]1(O)CC[C@H](COCc2ccccc2F)CC1)c1ccc(O)c(F)c1` [Example 69, 3-Fluoro-N-[(trans-4-{[(2-fluorobenzyl)oxy]methyl}-1-hydroxycyclohexyl)methyl]-4-hydroxybenzamide] were 13.2 nM and over 100 µM.
Taken in the same sequence, the figures for `O=C(NC[C@@H]1CC[C@H](COc2ccc(F)cc2)CO1)c1ccc(O)cc1` [Example 76, N-({(2S,5S)-5-[(4-Fluorophenoxy)methyl]tetrahydro-2H-pyran-2-yl}methyl)-4-hydroxybenzamide] were 29.3 nM and 27.7 µM.
Consider `Cc1ccc(OC[C@@H]2CC[C@H](CNC(=O)c3cn[nH]c3)OC2)cc1` [Example 123, N-({(2R,5R)-5-[(4-Methylphenoxy)methyl]tetrahydro-2H-pyran-2-yl}methyl)-1H-pyrazole-4-carboxamide], for which the IC50 on NR2B receptor was 7.1 nM; at Human HERG, over 100 µM.
Taken in the same sequence, the figures for `O=C(NC[C@@H]1CC[C@H](COc2ccccc2)CO1)c1ccc(O)cc1` [Example 36, (−)-4-Hydroxy-N-{[5R-(phenoxymethyl)tetrahydro-2H-pyran-2R-yl]methyl}benzamide] were 7.5 nM and 55.2 µM.
Taken in the same sequence, the figures for `O=C(NC[C@]1(O)CC[C@H](Cc2ccc(F)cc2)CC1)c1ccc(O)cc1` [Example 81, N-{[trans-4-(4-Fluorobenzyl)-1-hydroxycyclohexyl]methyl}-4-hydroxybenzamide] were 9.5 nM and 35.7 µM.
In the same order, the values of `O=C(NC[C@H]1CC[C@@H](OCCOc2ccccc2)CC1)c1ccc(O)cc1` [Example 78] are 5.4 nM and 40.8 µM.
For `O=C(NC[C@H]1CC[C@@H](COc2ccccn2)CC1)c1ccc(O)c(F)c1` [Example 89, 3-Fluoro-4-hydroxy-N-({cis-4-[(pyridin-2-yloxy)methyl]cyclohexyl}methyl)benzamide], the figures for the concentration for half-maximal inhibition (IC50) at NR2B receptor and at Human HERG were 9 nM and over 100 µM, respectively.
Taken in the same sequence, the figures for `O=C(NC[C@]1(O)CC[C@H](COc2ccccc2F)CC1)c1ccc(O)c(F)c1` [Example 65, 3-Fluoro-N-({trans-4-[(2-fluorophenoxy)methyl]-1-hydroxycyclohexyl}methyl)-4-hydroxybenzamide] were 10 nM and over 100 µM.
`O=C(NC[C@H]1CC[C@@H](COCc2ccccc2)CO1)c1ccc(O)cc1` [Example 39, 4-Hydroxy-N-{[5S-(benzyloxymethyl)tetrahydro-2H-pyran-2S-yl]methyl}benzamide]: the IC50 at NR2B receptor was 8.2 nM; on Human HERG it was over 100 µM.
As to `O=C(NC[C@H]1CC[C@@H](COc2ccccc2)CC1)c1cc(F)c(O)c(F)c1` [Example 108, 3,5-Difluoro-4-hydroxy-N-{[cis-4-(phenoxymethyl)cyclohexyl]methyl}benzamide], the IC50 on NR2B receptor is 17.8 nM; at Human HERG it was over 100 µM.
In the same order, the values of `O=C(NC[C@H]1CC[C@@H](COc2ccc(Cl)cc2)CO1)c1cc(F)c(O)c(F)c1` [Example 126, N-({(2R,5R)-5-[(4-Chlorophenoxy)methyl]tetrahydro-2H-pyran-2-yl}methyl)-3,5-difluoro-4-hydroxybenzamide] are 18.1 nM and over 100 µM.
In the case of `O=C(NC[C@@H]1CC[C@H](CCOc2ccc(F)cc2)CO1)c1cn[nH]c1` [Example 114, N-({(2S,5R)-5-[2-(4-fluorophenoxy)ethyl]tetrahydro-2H-pyran-2-yl}methyl)-1H-pyrazole-4-carboxamide], the IC50 was determined as 7.8 nM on NR2B receptor and 99.4 µM at Human HERG.
Turning to `O=C(NC[C@]1(O)CC[C@H](Cc2ccccc2)CC1)c1ccc(O)cc1` [Example 68, N-[(trans-4-Benzyl-1-hydroxycyclohexyl)methyl]-4-hydroxybenzamide], the IC50 is 7.3 nM at NR2B receptor and over 100 µM on Human HERG.
For `O=C(NC[C@H]1CC[C@@H](COc2ccccc2)CO1)c1ccc(O)cc1` [Example 35, (+)-4-Hydroxy-N-{[5S-(phenoxymethyl)tetrahydro-2H-pyran-2S-yl]methyl}benzamide], the IC50 stood at 20.9 nM on NR2B receptor and 51.6 µM at Human HERG.
